Assays:
[1] = test system: small flower umbrella sedge; test: Test B flooded paddy test; format: in vivo, Cyperus difformis; details: 1000 g ai/ha, scale 0 to 100 (0 no effect, 100 complete control)
How it was run: (§1)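 Formulated test chemicals went onto postemergence plants measuring 2 to 18 cm, at one to four leaves. For the paddy assay, species had reached two leaves. Scoring took place 13–15 days later by eye, relative to untreated plants, using 0 for no effect up to 100 for full control.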

barnyardgrass [2] = test: Test B pre-/postemergence herbicide test; format: in vivo, Echinochloa crus-galli
How it was run: (§2)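 Plants compared with untreated controls 13–15 days post-treatment and given a visual 0–100 injury score. Applications: preemergence to seeds; postemergence at 1- to 4-leaf (2–18 cm); paddy species flooded, 2-leaf stage. Vehicle non-phytotoxic, surfactant included.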

large crabgrass = test: Test B pre-/postemergence herbicide test; format: in vivo, Digitaria sanguinalis
How it was run: (§3)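 Visual rating, 0 (no effect) to 100 (complete control), versus untreated controls after 13–15 d in greenhouse. Pre- and postemergence applications (postemergence plants 2–18 cm, 1–4 leaves); flooded paddy arm at 2-leaf stage. Compounds in non-phytotoxic solvent plus surfactant.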

cocklebur = test: Test B pre-/postemergence herbicide test; format: in vivo, Xanthium strumarium
How it was run: as §2

wild oat = test: Test B postemergence herbicide test; format: in vivo, Avena fatua
How it was run: (§4)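 After treating 2-leaf paddy plants or 2–18 cm postemergence plants (1 to 4 leaves) with formulated chemical, researchers kept them in a greenhouse for 13–15 days. Effects were judged visually versus controls: 0 indicates none, 100 total control.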

giant foxtail = test: Test B pre-/postemergence herbicide test; format: in vivo, Setaria faberi
How it was run: as §3

Surinam grass = test: Test B pre-/postemergence herbicide test; format: in vivo, Urochloa decumbens
How it was run: as §3

pigweed = test: Test B pre-/postemergence herbicide test; format: in vivo, Amaranthus retroflexus
How it was run: as §3

ducksalad = test: Test B flooded paddy test; format: in vivo, Heteranthera limosa; details: 1000 g ai/ha, scale 0 to 100 (0 no effect, 100 complete control)
How it was run: as §1

rice = test: Test B flooded paddy test; format: in vivo, Oryza sativa; details: 1000 g ai/ha, scale 0 to 100 (0 no effect, 100 complete control)
How it was run: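 Read-out: visual comparison with controls, scored 0 to 100, where 100 means complete control and 0 no effect. Formulated chemicals were applied postemergence to plants 2–18 cm tall (1- to 4-leaf), or to flooded-paddy plants at the 2-leaf stage, then held 13 to 15 days under glass.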

morningglory = test: Test B pre-/postemergence herbicide test; format: in vivo, Ipomoea coccinea
How it was run: as §2

barnyardgrass [3] = test: Test B flooded paddy test; format: in vivo, Echinochloa crus-galli; details: 1000 g ai/ha, scale 0 to 100 (0 no effect, 100 complete control)
How it was run: as §1

lambsquarters = test: Test B pre-/postemergence herbicide test; format: in vivo, Chenopodium album
How it was run: as §3

velvetleaf = test: Test B pre-/postemergence herbicide test; format: in vivo, Abutilon theophrasti
How it was run: as §3

wheat = test: Test B postemergence herbicide test; format: in vivo, Triticum aestivum; set-up: key to Wheat plant response rating: 0 = no effect, 100 = complete control
How it was run: as §4

corn = test: Test B pre-/postemergence herbicide test; format: in vivo, Zea mays
How it was run: as §3

blackgrass = test: Test B postemergence herbicide test; format: in vivo, Alopecurus myosuroides
How it was run: as §1

[4] = 125 g ai/ha, 0 is no effect, 100 is complete control, preemergence
[5] = Postemergence, 500 g ai/ha, scale 0 (no effect) to 100 (complete control)
[6] = postemergence, 125 g ai/ha, scale 0 to 100
[7] = Postemergence, 250 g ai/ha, scale 0 (no effect) to 100 (complete control)
[8] = postemergence, 62 g ai/ha, scale 0 to 100

In the case of `CCNC(=O)c1ccnc(NC(=O)c2nn(C(C)(C)C)nc2C)c1` [Compound 424], the “Sedge, Umbrella plant response rating” value [1] is reported as 70, the “Plant response rating (0 to 100 scale), Barnyardgrass” value (barnyardgrass [2]; [4]) is reported as 20 and the “Barnyardgrass plant response rating” value (barnyardgrass [2]; Postemergence, 125 g ai/ha, scale 0 (no effect) to 100 (complete control)) is reported as 10. For the same molecule, the “Barnyardgrass plant response rating” value (barnyardgrass [2]; [5]) was 30, the “Plant response rating (0 to 100 scale), Crabgrass, Large” value (large crabgrass; [4]) was 90 and the “Crabgrass, Large plant response rating” value (large crabgrass; [5]) was 30. For the same molecule, the “Crabgrass, Large plant response rating” value (large crabgrass; [6]) was 10, the “Plant response rating (0 to 100 scale), Cocklebur” value (cocklebur; [4]) was 0 and the “Cocklebur plant response rating” value (cocklebur; [5]) was 30. For the same molecule, the “Cocklebur plant response rating” value (cocklebur; [6]) was 20, the “Oat, Wild plant response rating” value (wild oat; [5]) was 0 and the “Oat, Wild plant response rating” value (wild oat; [6]) was 0. The “Plant response rating (0 to 100 scale), Foxtail, Giant” value (giant foxtail; [4]) was 20, the “Foxtail, Giant plant response rating” value (giant foxtail; [5]) was 30 and the “Foxtail, Giant plant response rating” value (giant foxtail; [6]) was 20. For the same molecule, the “Plant response rating (0 to 100 scale), Surinam Grass” value (Surinam grass; [4]) was 30, the “Surinam Grass plant response rating” value (Surinam grass; [5]) was 30 and the “Surinam Grass plant response rating” value (Surinam grass; [6]) was 20. The “Plant response rating (0 to 100 scale), Pigweed” value (pigweed; [4]) was 90, the “Pigweed plant response rating” value (pigweed; [5]) was 60 and the “Pigweed plant response rating” value (pigweed; [6]) was 30. The “Ducksalad plant response rating” value (ducksalad) was 70, the “Rice plant response rating” value (rice) was 20 and the “Plant response rating (0 to 100 scale), Morningglory” value (morningglory; [4]) was 10. For the same molecule, the “Morningglory plant response rating” value (morningglory; [5]) was 70, the “Morningglory plant response rating” value (morningglory; [6]) was 30 and the “Barnyardgrass plant response rating” value (barnyardgrass [3]) was 40. The “Plant response rating (0 to 100 scale), Lambsquarters” value (lambsquarters; [4]) was 70, the “Lambsquarters plant response rating” value (lambsquarters; [5]) was 70 and the “Lambsquarters plant response rating” value (lambsquarters; [6]) was 40. The “Plant response rating (0 to 100 scale), Velvetleaf” value (velvetleaf; [4]) was 20, the “Velvetleaf plant response rating” value (velvetleaf; [5]) was 30 and the “Velvetleaf plant response rating” value (velvetleaf; [6]) was 30. The “Wheat plant response rating” value (wheat; 500 g ai/ha, scale 0 to 100, 0 no effect, 100 complete control, preemergence) was 50, the “Wheat plant response rating” value (wheat; [5]) was 0 and the “Wheat plant response rating” value (wheat; [6]) was 0. For the same molecule, the “Plant response rating (0 to 100 scale), Corn” value (corn; [4]) was 0, the “Corn plant response rating” value (corn; [5]) was 10 and the “Corn plant response rating” value (corn; [6]) was 0. The “Blackgrass plant response rating” value (blackgrass; [5]) was 50 and the “Blackgrass plant response rating” value (blackgrass; [6]) was 0.

`CCN(CC)C(=O)c1cccc(NC(=O)c2cn(C(C)(C)C)nc2C(F)(F)F)c1` [Compound 191] was tested, and the “Sedge, Umbrella plant response rating” value ([1]; visual rating, 13 to 15 days) was 90, the “Barnyardgrass plant response rating” value (barnyardgrass [2]; [7]) was 10 and the “Barnyardgrass plant response rating” value (barnyardgrass [2]; [8]) was 0. The “Crabgrass, Large plant response rating” value (large crabgrass; [7]) was 20, the “Crabgrass, Large plant response rating” value (large crabgrass; [8]) was 20 and the “Cocklebur plant response rating” value (cocklebur; [7]) was 10. The “Cocklebur plant response rating” value (cocklebur; [8]) was 0, the “Oat, Wild plant response rating” value (wild oat; [7]) was 20 and the “Oat, Wild plant response rating” value (wild oat; [8]) was 10. The “Foxtail, Giant plant response rating” value (giant foxtail; [7]) was 20, the “Foxtail, Giant plant response rating” value (giant foxtail; [8]) was 10 and the “Surinam Grass plant response rating” value (Surinam grass; [7]) was 10. For the same molecule, the “Surinam Grass plant response rating” value (Surinam grass; [8]) was 10, the “Pigweed plant response rating” value (pigweed; [7]) was 70 and the “Pigweed plant response rating” value (pigweed; [8]) was 30. For the same molecule, the “Ducksalad plant response rating” value (ducksalad; visual rating, 13 to 15 days) was 20, the “Rice plant response rating” value (rice; visual rating, 13 to 15 days) was 0 and the “Morningglory plant response rating” value (morningglory; [7]) was 90. For the same molecule, the “Morningglory plant response rating” value (morningglory; [8]) was 40, the “Barnyardgrass plant response rating” value (barnyardgrass [3]; visual rating, 13 to 15 days) was 20 and the “Lambsquarters plant response rating” value (lambsquarters; [7]) was 80. For the same molecule, the “Lambsquarters plant response rating” value (lambsquarters; [8]) was 60, the “Velvetleaf plant response rating” value (velvetleaf; [7]) was 20 and the “Velvetleaf plant response rating” value (velvetleaf; [8]) was 10. For the same molecule, the “Wheat plant response rating” value (wheat; 250 g ai/ha, scale 0 to 100, 0 no effect, 100 complete control, preemergence) was 0, the “Wheat plant response rating” value (wheat; [7]) was 0 and the “Wheat plant response rating” value (wheat; [8]) was 0. The “Corn plant response rating” value (corn; [7]) was 10, the “Corn plant response rating” value (corn; [8]) was 10 and the “Blackgrass plant response rating” value (blackgrass; [7]) was 10. For the same molecule, the “Blackgrass plant response rating” value (blackgrass; [8]) was 0.
